What was measured:
[1] = system: microbivorous nematodes; experiment: Effect on beneficial nematodes in covered pots of silt loam; type: in vivo
Protocol: (§1) In this study, the soil was naturally infested with four species of nematodes, two of which were deleterious and two beneficial, and observations were made of both the nematode survival and the growth of the soybean plants.
(§2) Stock solutions of hydrogen cyanamide at 1.0% by weight and propionic acid at 5.0% by weight, both in water, were prepared, the hydrogen cyanamide from a phosphate-buffered 50% aqueous solution. Planting pots measuring 10 cm in diameter, each containing 1 kg of soil, were used. The soil was silt loam from a cotton field, pH 6.2, CEC<10 meq/100 g soil, organic matter<1.0%. The treatment chemicals were combined in various dilutions such that 100 mL of the combined dilutions contained the desired amount of each chemical for each test. The combined dilutions were then applied to the soil surface in each pot, at 100 mL of combined dilution per pot. The dilutions were selected to achieve target application rates expressed in milligrams of the treatment chemical per kilogram of soil, with 1 milligram of treatment chemical per kilogram of soil being approximately equal to 2 kilograms of the chemical per hectare of soil or 2 pounds of the chemical per acre of soil.
(§3) Immediately after the treatment chemicals were applied, each pot was covered by a thick (1.5 mil), clear, low-density polyethylene bag. After twelve days, the bags were removed and soil samples were taken from each pot for nematological analysis by the salad bowl technique of Rodriguez-Kabana, R., and M. H. Pope, Nematropica, 11: 175-186 (1981). The results of these analyses are listed in Table I as pre-plant test results. The results for the two deleterious nematodes are also shown as plots of the number of nematodes vs. the hydrogen cyanamide application rate in FIGS. 1 and 2.
(§4) After the polyethylene bags were removed, each pot was planted with Hutcheson soybean seeds at 5 seeds per pot, and the seeds were allowed to germinate and the plants to grow for 45 days. The resulting plants were then removed from the pots, the root systems were washed, and the number of plants in each pot was determined. The weights of both fresh shoots and roots were also determined as well as the shoot height and the relative health of the root system, using a subjective index. Soil samples were also collected, and the soil and roots were incubated to determine nematode populations. Treatments were arranged in randomized complete block design with seven replications per treatment, and statistical evaluation of the data was performed with analyses of variance (ANOVA) and standard regression procedures. Fischer's Least Significant Difference at p 0.05 was calculated when appropriate. The results of these tests are listed as final test results in Tables II, III, and IV, with nematode populations in the soil listed in Table II, the nematode populations in the root systems in Table III, and the plant and root parameters of the soybean shoots in Table IV.

[2] = system: Hutcheson soybean; experiment: Crop (soybean) conditions after soil treatment; type: in vivo; settings: 57 d after treatment; for Number of Plants/Pot: 5 seeds/pot
Protocol: as §4, with “In this study,” for “After”, “soil was naturally infested with four species of nematodes, two of which” for “polyethylene bags”, “deleterious and two beneficial, and observations were made of both the nematode survival” for “removed, each pot was planted with Hutcheson soybean seeds at 5 seeds per pot,”, “growth of the soybean plants. Stock solutions of hydrogen cyanamide at 1.0% by weight and propionic acid at 5.0% by weight, both in water,” for “seeds”, “prepared,” for “allowed to germinate and”, “hydrogen cyanamide from a phosphate-buffered 50% aqueous solution. Planting pots measuring 10 cm in diameter, each containing 1 kg of soil, were used. […]” for “plants to grow for 45 days.”

[3] = system: spiral nematodes; experiment: Nematicidal activity in covered pots of naturally infested silt loam, soybean planted after 12 days; type: in vivo, Helicotylenchus dihystera
Protocol: as §1, §2, §3, §4

[4] = system: morningglory; experiment: Herbicidal activity, phosphate-free cyanamide and propionic acid, post-emergence, uncovered pots; type: in vivo, Ipomoea spp.
From the text: The procedures in this example differed from those of Example 2, however, by the use of hydrogen cyanamide crystals free of phosphate ion to prepare the aqueous hydrogen cyanamide solution, by the use of post-emergence application, and by the omission of any covering of the pots during any part of the test. Observations were made for total weed growth, and individual observations were also made for yellow nutsedge, crabgrass, sicklepod, and momingglory. Stock solutions of hydrogen cyanamide at 1.25% by weight and propionic acid at 5.0% by weight, both in water, were prepared as before, except that the hydrogen cyanamide solution, as noted above, was prepared by dissolving hydrogen cyanamide crystals in water in the absence of phosphate ion. […] The weeds were allowed to grow for three weeks before the treatment chemicals were applied. […] Data analyses were performed in the same manner as Examples 1 and 2. Table IX lists the results in weeds per pot for all weeds, Table X for yellow nutsedge, Table XI for crabgrass, Table XII for sicklepod, and Table XIII for morningglory, all both with propionic acid alone at various application rates and with […]

[5] = microbivorous nematodes, in vivo, 57 d, pH 6.2
[6] = 12 d after treatment, pre-plant, cyanamide 20 mg/kg soil
[7] = 12 d after treatment, pre-plant, cyanamide 40 mg/kg soil
[8] = 12 d after treatment, pre-plant, cyanamide 60 mg/kg soil
[9] = 12 d after treatment, pre-plant, cyanamide 80 mg/kg soil
[10] = 12 d after treatment, pre-plant, cyanamide 120 mg/kg soil
[11] = 57 d after treatment, 45 d after planting, cyanamide 20 mg/kg soil
[12] = 57 d after treatment, 45 d after planting, cyanamide 40 mg/kg soil
[13] = 57 d after treatment, 45 d after planting, cyanamide 60 mg/kg soil
[14] = 57 d after treatment, 45 d after planting, cyanamide 80 mg/kg soil
[15] = 57 d after treatment, 45 d after planting, cyanamide 120 mg/kg soil
[16] = 57 d after treatment, cyanamide 20 mg/kg soil
[17] = 57 d after treatment, cyanamide 40 mg/kg soil
[18] = 57 d after treatment, cyanamide 60 mg/kg soil
[19] = 57 d after treatment, cyanamide 80 mg/kg soil
[20] = 57 d after treatment, cyanamide 120 mg/kg soil

## CCC(=O)O [C2H5CO2H, propionic acid]
[1]; microbivorous nematodes, in vivo, 12 d, pH 6.2
  Surviving Nematodes: Microbivorous: 66 per 100 mL of soil
[1]; [5]
  Surviving Nematodes in Root System: Microbivorous: 96 Per Pot
  Surviving Nematodes: Microbivorous: 45 per 100 mL of soil
[2]; C2H5CO2H 250 mg/kg soil
  Number of Plants/Pot: 3.7
  Fresh Shoot Weight: 19.6 g
  Root Condition Index: 2.1
  Shoot Height: 26.9 cm
[3]; 12 d after treatment, pre-plant, C2H5CO2H 250 mg/kg soil
  Surviving Nematodes: Spiral: 47 per 100 mL of soil
[3]; 57 d after treatment, 45 d after planting, C2H5CO2H 250 mg/kg soil
  Surviving Nematodes: Spiral: 12.4 per 100 mL of soil
[3]; 57 d after treatment, C2H5CO2H 250 mg/kg soil
  Surviving Nematodes in Root System: Spiral: 25.9 Per Pot
[4]; 6 d after treatment, C2H5CO2H 100 mg/kg soil
  Weeds Per Pot: Morningglory: 7
[4]; 6 d after treatment, C2H5CO2H 200 mg/kg soil
  Weeds Per Pot: Morningglory: 2.1
[4]; 6 d after treatment, C2H5CO2H 300 mg/kg soil
  Weeds Per Pot: Morningglory: 0
[4]; 6 d after treatment, C2H5CO2H 400 mg/kg soil
  Weeds Per Pot: Morningglory: 0
[4]; 6 d after treatment, C2H5CO2H 500 mg/kg soil
  Weeds Per Pot: Morningglory: 0
[4]; 13 d after treatment, C2H5CO2H 100 mg/kg soil
  Weeds Per Pot: Morningglory: 7.3
[4]; 13 d after treatment, C2H5CO2H 200 mg/kg soil
  Weeds Per Pot: Morningglory: 2.1
[4]; 13 d after treatment, C2H5CO2H 300 mg/kg soil
  Weeds Per Pot: Morningglory: 0
[4]; 13 d after treatment, C2H5CO2H 400 mg/kg soil
  Weeds Per Pot: Morningglory: 0
[4]; 13 d after treatment, C2H5CO2H 500 mg/kg soil
  Weeds Per Pot: Morningglory: 0
[4]; 20 d after treatment, C2H5CO2H 100 mg/kg soil
  Weeds Per Pot: Morningglory: 7.3
[4]; 20 d after treatment, C2H5CO2H 200 mg/kg soil
  Weeds Per Pot: Morningglory: 2.1
[4]; 20 d after treatment, C2H5CO2H 300 mg/kg soil
  Weeds Per Pot: Morningglory: 0
[4]; 20 d after treatment, C2H5CO2H 400 mg/kg soil
  Weeds Per Pot: Morningglory: 0
[4]; 20 d after treatment, C2H5CO2H 500 mg/kg soil
  Weeds Per Pot: Morningglory: 0

## N#CN [Cyanamide, hydrogen cyanamide]
[1]; [6]
  Surviving Nematodes: Microbivorous: 92 per 100 mL of soil
[1]; [7]
  Surviving Nematodes: Microbivorous: 86 per 100 mL of soil
[1]; [8]
  Surviving Nematodes: Microbivorous: 96 per 100 mL of soil
[1]; [9]
  Surviving Nematodes: Microbivorous: 144 per 100 mL of soil
[1]; [10]
  Surviving Nematodes: Microbivorous: 75 per 100 mL of soil
[1]; [11]
  Surviving Nematodes: Microbivorous: 132 per 100 mL of soil
[1]; [12]
  Surviving Nematodes: Microbivorous: 121 per 100 mL of soil
[1]; [13]
  Surviving Nematodes: Microbivorous: 78 per 100 mL of soil
[1]; [14]
  Surviving Nematodes: Microbivorous: 99 per 100 mL of soil
[1]; [15]
  Surviving Nematodes: Microbivorous: 52 per 100 mL of soil
[1]; [16]
  Surviving Nematodes in Root System: Microbivorous: 176.9 Per Pot
[1]; [17]
  Surviving Nematodes in Root System: Microbivorous: 126.9 Per Pot
[1]; [18]
  Surviving Nematodes in Root System: Microbivorous: 118 Per Pot
[1]; [19]
  Surviving Nematodes in Root System: Microbivorous: 113 Per Pot
[1]; [20]
  Surviving Nematodes in Root System: Microbivorous: 123 Per Pot
[2]; cyanamide 20 mg/kg soil
  Number of Plants/Pot: 4
  Fresh Shoot Weight: 21.7 g
  Root Condition Index: 1.6
  Shoot Height: 26.4 cm
[2]; cyanamide 40 mg/kg soil
  Number of Plants/Pot: 3.9
  Fresh Shoot Weight: 20.5 g
  Root Condition Index: 1.4
  Shoot Height: 26.5 cm
[2]; cyanamide 60 mg/kg soil
  Number of Plants/Pot: 4.7
  Fresh Shoot Weight: 25.5 g
  Root Condition Index: 1.1
  Shoot Height: 27 cm
[2]; cyanamide 80 mg/kg soil
  Number of Plants/Pot: 4.4
  Fresh Shoot Weight: 24.95 g
  Root Condition Index: 1.1
  Shoot Height: 27.1 cm
[2]; cyanamide 120 mg/kg soil
  Number of Plants/Pot: 4.9
  Fresh Shoot Weight: 29.4 g
  Root Condition Index: 1.3
  Shoot Height: 28.7 cm
[3]; [6]
  Surviving Nematodes: Spiral: 102 per 100 mL of soil
[3]; [7]
  Surviving Nematodes: Spiral: 95 per 100 mL of soil
[3]; [8]
  Surviving Nematodes: Spiral: 59 per 100 mL of soil
[3]; [9]
  Surviving Nematodes: Spiral: 76 per 100 mL of soil
[3]; [10]
  Surviving Nematodes: Spiral: 18 per 100 mL of soil
[3]; [11]
  Surviving Nematodes: Spiral: 6.7 per 100 mL of soil
[3]; [12]
  Surviving Nematodes: Spiral: 3.7 per 100 mL of soil
[3]; [13]
  Surviving Nematodes: Spiral: 2.9 per 100 mL of soil
[3]; [14]
  Surviving Nematodes: Spiral: 9.8 per 100 mL of soil
[3]; [15]
  Surviving Nematodes: Spiral: 4.7 per 100 mL of soil
[3]; [16]
  Surviving Nematodes in Root System: Spiral: 42.3 Per Pot
[3]; [17]
  Surviving Nematodes in Root System: Spiral: 38.6 Per Pot
[3]; [18]
  Surviving Nematodes in Root System: Spiral: 42 Per Pot
[3]; [19]
  Surviving Nematodes in Root System: Spiral: 28 Per Pot
[3]; [20]
  Surviving Nematodes in Root System: Spiral: 16 Per Pot
[4]; 6 d after treatment, cyanamide 150 mg/kg soil
  Weeds Per Pot: Morningglory: 3.3
[4]; 13 d after treatment, cyanamide 150 mg/kg soil
  Weeds Per Pot: Morningglory: 2.7
[4]; 20 d after treatment, cyanamide 150 mg/kg soil
  Weeds Per Pot: Morningglory: 2.9
[4]; hydrogen cyanamide 125 mg/kg of soil alone, all intervals
  Morningglory weeds per pot: about three or fewer momingglory weeds per pot

Source: patent publication US20070116781A1, “Hydrogen Cyanamide Pesticide Formulations” (priority 2005, published 2007)
